Consider 20 compounds from patent US20070073056A1, “4-Substituted Pyrazoline Compounds, their Preparation and Use as Medicaments” (LABORATORIOS DEL DR. ESTEVE, S.A., priority 2005, published 2007).

Structures can show the parent of a compound that is named as a salt.

Experiment [1] addresses CB1-receptor (UniProt P20272). Kind of experiment: binding of the pyrazoline compounds to CB1-receptors (Pharmacological Methods, Part I). The settings on record: radioligand [3H]-CP55940, read-out: IC50. Also on record: IC50; species or system human or rat. As for the experimental part:
(§1) I. In-vitro Determination of Affinity to CB1/CB2-Receptors
(§2) The in-vitro determination of the affinity of the inventive 4-substituted pyrazoline compounds to CB1/CB2-Rezeptors is carried out as described in the publication of Ruth A. Ross, Heather C. Brockie et al., “Agonist-inverse agonist characterisation at CB1 and CB2 cannabinoid receptors of L-759633, L759656 and AM630”, British Journal of Pharmacology, 126, 665-672, (1999), whereby the transfected human CB1 and CB2 receptors of Receptor Biology, Inc. are used. The radioligand used for both receptors is [^3H]-CP55940. The respective parts of the description is hereby incorporated by reference and forms part of the present disclosure.
(§3) Rat Cerebellum CB1 Binding
(§4) Binding affinity to CB1 receptor was evaluated according to a modification of the method described by Govaerts et al., Eur J Pharmac Sci 23, 233-243 (2004). The respective parts of the description is hereby incorporated by reference and forms part of the present disclosure.
(§5) Briefly, cerebellum from male wistar rats (250-300 g) were carefully dissected on ice and homogenates were prepared with Potter-Helveheim in a cold 50 mM Tris-HCl solution containing 5 mM MgCl2, 1 mM EDTA and 0.25 M sucrose, pH 7.4. The suspension was centrifuged at […] for 5 minutes. The supernatants were collected and centrifuged 50,000×g for 15 minutes. The resulting pellets were then resuspended in Tris-HCl buffer without sucrose, homogenized and incubated for 15 min at 37° C. in an orbital shaker bath and centrifuged again at 50,000×g for 15 min. Pellets were weighted, resuspended in Tris-HCl buffer without sucrose, homogenized with Ultraturrax at 13,500 rpm for 3×5 seconds and alicuoted in 0.9 ml volumes in Eppendorf tubes. Alicuotes were centrifuged at 20,800×g for 5 minutes, supernatants discarded and pellets were frozen at −80° C. until use. Total protein concentration was determined using the Bio-Rad Lowry method based kit. Competitive binding experiments were performed in presence of 1 nM [^3H]-CP 55,940 in siliconized glass tubes containing 100 μg protein/tube resuspended in 1 ml final volume of 50 mM Tris-HCl, 5 mM MgCl2, 1 mM EDTA, 0.5% (w/v) bovine serum albumin, pH 7.4. Compounds were present at various concentrations and the non specific binding was determined in the presence of 10 μM HU-210. After 1 hour incubation at 30° C., the suspension was rapidly filtered through 0.5% PEI pre-treated GF/B fiber filters on a 96-well harvester and washed 3 times with 3 ml ice-cold binding buffer without bovine serum albumin. Radioactivity on filters was measured with Wallac Winspectral 1414 counter by liquid scintillation in 6 ml Ecoscint H (National Diagnostics, U.K.). Assays were made in triplicates.
(§6) Binding data were analyzed by non-linear regression with the software GraphPad Prism Version 3.03.
(§7) The binding of the pyrazoline compounds of general formula I to CB1-receptors was determined according to the method described in the section Pharmacological Methods, Part I.

For experiment [2], the target named is CB1-receptor (UniProt P20272). Described as above. Also noted: other: 10^−7 M; other: 10^−8 M; species or system human or rat. As for the experimental part: as §1, §2, §3, §4, §5, §6, §7

For `C[C@H]1C(C(=O)NN2CCc3ccccc32)=NN(c2ccc(Cl)cc2Cl)[C@H]1c1ccc(Cl)cc1` (relative stereo) [Example 15, cis-5-(4-Chloro-phenyl)-1-(2,4-dichloro-phenyl)-4-methyl-4,5-dihydro-1H-pyrazole-3-carboxylic acid (2,3-dihydro-indol-1-yl)-amide], the IC50 at CB1-receptor [1] came out at 0.1 µM.

In the case of `C[C@H]1C(C(=O)NN2CC3CCCC3C2)=NN(c2ccc(Cl)cc2Cl)[C@H]1c1ccc(Br)cc1` (relative stereo) [Example 213, cis-5-(4-bromophenyl)-1-(2,4-dichlorophenyl)-N-(hexahydrocyclopenta[c]pyrrol-2(1H)-yl)-4-methyl-4,5-dihydro-1H-pyrazole-3-carboxamide hydrochloride], the IC50 on CB1-receptor [1] amounted to 0.053 µM.

Take `C[C@H]1C(C(=O)N2CCN(C3CCCCC3)CC2)=NN(c2ccc(Cl)cc2Cl)[C@H]1c1ccc(Cl)cc1` (relative stereo) [Example 5, cis-[5-(4-Chloro-phenyl)-1-(2,4-dichloro-phenyl)-4-methyl-4,5-dihydro-1H-pyrazol-3-yl]-(4-cyclohexyl-piperazin-1-yl)-methanone]: at CB1-receptor [1], the IC50 was determined as 0.2 µM.

In the case of `C[C@@H]1C(C(=O)NN2CCCCC2)=NN(c2ccc(Cl)cc2Cl)[C@H]1c1ccc(Cl)s1` (relative stereo) [Example 426, trans-5-(5-chlorothiophen-2-yl)-1-(2,4-dichlorophenyl)-4-methyl-N-(piperidin-1-yl)-4,5-dihydro-1H-pyrazole-3-carboxamide hydrochloride], the IC50 on CB1-receptor [1] was determined as 0.28 µM.

In the case of `COC[C@@H]1CCCN1NC(=O)C1=NN(c2ccc(Cl)cc2Cl)[C@H](c2ccc(Cl)cc2)[C@@H]1C.Cl` (mixture of isomers) [Example 107, cis-5-(4-chlorophenyl)-1-(2,4-dichlorophenyl)-N-((S)-2-(methoxymethyl)pyrrolidin-1-yl)-4-methyl-4,5-dihydro-1H-pyrazole-3-carboxamide hydrochloride], the Inhibition was 43.9% at CB1-receptor [2] (10^−7 M) and 2.7 at CB1-receptor [2] (10^−8 M, in %).

Turning to `C[C@H]1C(C(=O)NN2CC3CCCC3C2)=NN(c2ccc(Cl)cc2Cl)[C@H]1c1ccc(F)cc1.Cl` (relative stereo) [Example 233, cis-1-(2,4-dichlorophenyl)-5-(4-fluorophenyl)-N-(hexahydrocyclopenta[c]pyrrol-2(1H)-yl)-4-methyl-4,5-dihydro-1H-pyrazole-3-carboxamide hydrochloride], the Inhibition stood at 43.9% at CB1-receptor [2] (10^−7 M) and 27.9 at CB1-receptor [2] (10^−8 M, in %).

As to `C[C@H]1C(C(=O)NN2CCCCC2)=NN(c2ccc(Cl)cc2Cl)[C@@H]1c1ccc(Br)s1` (relative stereo) [Example 71, trans-5-(5-Bromo-thiophen-2-yl)-1-(2,4-dichloro-phenyl)-4-methyl-4,5-dihydro-1H-pyrazole-3-carboxylic acid piperidin-1-ylamide], the 50% inhibitory concentration (IC50) at CB1-receptor [1] was more than 1 µM.

For `C[C@@H]1C(C(=O)NN2CCCCCCC2)=NN(c2ccc(Cl)cc2Cl)[C@@H]1c1ccc(Cl)cc1` (relative stereo) [Example 120, cis-N-(azocan-1-yl)-5-(4-chlorophenyl)-1-(2,4-dichlorophenyl)-4-methyl-4,5-dihydro-1H-pyrazole-3-carboxamide], the Inhibition came to 75.5% at CB1-receptor [2] (10^−7 M) and 37 on CB1-receptor [2] (10^−8 M, in %).

Consider `C[C@@H]1C(C(=O)NN2C(=O)c3cccc4cccc(c34)C2=O)=NN(c2ccc(Cl)cc2Cl)[C@@H]1c1ccc(Cl)cc1` (relative stereo) [Example 104, cis-5-(4-Chlorophenyl)-1-(2,4-dichlorophenyl)-4-methyl-4,5-dihydro-1H-pyrazole-3-carboxylic acid (1,3-dioxo-1H,3H-benzo[de]isoquinolin-2-yl)-amide], for which the Inhibition is recorded as 31.7% at CB1-receptor [2] (10^−7 M) and −0.4 at CB1-receptor [2] (10^−8 M, in %).

In the case of `C[C@@H]1C(C(=O)NN2CCCCC2)=NN(c2ccc(Cl)cc2Cl)[C@H]1c1ccc(Cl)cc1` (relative stereo) [Example 431, trans-5-(4-chlorophenyl)-1-(2,4-dichlorophenyl)-4-methyl-N-(piperidin-1-yl)-4,5-dihydro-1H-pyrazole-3-carboxamide], the IC50 on CB1-receptor [1] was found to be 0.079 µM.

For the compound “cis-1-(2,4-dichlorophenyl)-5-(4-hydroxyphenyl)-4-methyl-N-(piperidin-1-yl)-4,5-dihydro-1H-pyrazole-3-carboxamide [Example 343]”, the Inhibition on CB1-receptor [2] (10^−7 M) is reported as −10.1%; on CB1-receptor [2] (10^−8 M, in %) it was −15.8.

For `C[C@@H]1C(C(=O)O)=NN(c2ccc(Cl)cc2Cl)[C@H]1c1ccc(Br)cc1` (relative stereo) [Example 200, trans-5-(4-bromophenyl)-1-(2,4-dichlorophenyl)-4-methyl-4,5-dihydro-1H-pyrazole-3-carboxylic acid], the Inhibition on CB1-receptor [2] (10^−7 M) is on record as −11.2%; on CB1-receptor [2] (10^−8 M, in %) it was 3.

For `C[C@H]1C(C(=O)NN2CCCC2)=NN(c2ccc(Cl)cc2Cl)[C@H]1c1ccc(Cl)cc1` (relative stereo) [Example 7, cis-5-(4-Chloro-phenyl)-1-(2,4-dichloro-phenyl)-4-methyl-4,5-dihydro-1H-pyrazole-3-carboxylic acid pyrrolidin-1-ylamide], the Inhibition was found to be 41% on CB1-receptor [2] (10^−7 M) and 20.7 at CB1-receptor [2] (10^−8 M, in %).

Regarding `C[C@@H]1C(C(=O)NN2CCN(C3CCCC3)CC2)=NN(c2ccc(Cl)cc2Cl)[C@@H]1c1ccc(Cl)cc1.Cl` (relative stereo) [Example 100, cis-5-(4-chlorophenyl)-N-(4-cyclopentylpiperazin-1-yl)-1-(2,4-dichlorophenyl)-4-methyl-4,5-dihydro-1H-pyrazole-3-carboxamide hydrochloride], the Inhibition was determined as 32.6% on CB1-receptor [2] (10^−7 M) and 5.4 at CB1-receptor [2] (10^−8 M, in %).

For the compound `COc1ccc([C@@H]2[C@H](C)C(C(=O)N[C@H]3CCCC[C@@H]3O)=NN2c2ccc(Cl)cc2Cl)cc1` (mixture of isomers) [Example 281, (+)-cis-1-(2,4-dichlorophenyl)-N-((1S,2S)-2-hydroxycyclohexyl)-5-(4-methoxyphenyl)-4-methyl-4,5-dihydro-1H-pyrazole-3-carboxamide], the Inhibition turned out to be 39.0% at CB1-receptor [2] (10^−7 M) and 10.2 on CB1-receptor [2] (10^−8 M, in %).

As to `C[C@@H]1C(C(=O)NN2CCc3ccccc32)=NN(c2ccc(Cl)cc2Cl)[C@@H]1c1ccc(Br)cc1` (relative stereo) [Example 415, cis-5-(4-bromophenyl)-1-(2,4-dichlorophenyl)-N-(indolin-1-yl)-4-methyl-4,5-dihydro-1H-pyrazole-3-carboxamide], the Inhibition on CB1-receptor [2] (10^−7 M) was found to be 79.3%; at CB1-receptor [2] (10^−8 M, in %), 32.3.

For the compound `C[C@H]1C(C(=O)O)=NN(c2ccc(Cl)cc2Cl)[C@H]1c1ccc(Br)cc1` (relative stereo) [Example 413, cis-5-(4-bromophenyl)-1-(2,4-dichlorophenyl)-4-methyl-4,5-dihydro-1H-pyrazole-3-carboxylic acid], the Inhibition at CB1-receptor [2] (10^−7 M) worked out at 17.3%; on CB1-receptor [2] (10^−8 M, in %), 13.8.

Take `C[C@@H]1C(C(=O)N[C@@H]2CCCC[C@H]2OCc2ccccc2)=NN(c2ccc(Cl)cc2Cl)[C@@H]1c1ccc(Cl)cc1` (mixture of isomers) [Example 437, (−)-cis-N-((1R,2R)-2-(benzyloxy)cyclohexyl)-5-(4-chlorophenyl)-1-(2,4-dichlorophenyl)-4-methyl-4,5-dihydro-1H-pyrazole-3-carboxamide]: the Inhibition worked out at 40.9% on CB1-receptor [2] (10^−7 M) and 14.7 on CB1-receptor [2] (10^−8 M, in %).

As to `C[C@@H]1C(C(=O)NN2CCOCC2)=NN(c2ccc(Cl)cc2Cl)[C@@H]1c1ccc(Cl)cc1` (relative stereo) [Example 101, cis-5-(4-chlorophenyl)-1-(2,4-dichlorophenyl)-4-methyl-N-morpholino-4,5-dihydro-1H-pyrazole-3-carboxamide], the Inhibition on CB1-receptor [2] (10^−7 M) is 34.9%; at CB1-receptor [2] (10^−8 M, in %), 27.7.

Regarding `CC1C(C(=O)O)=NN(c2ccc(Cl)cc2Cl)C1c1ccccc1` (stereo not shown) [Example 429, 1-(2,4-dichlorophenyl)-4-methyl-5-phenyl-4,5-dihydro-1H-pyrazole-3-carboxylic acid], the Inhibition at CB1-receptor [2] (10^−7 M) was −11%; on CB1-receptor [2] (10^−8 M, in %), −10.1.
